# Experimental data reported in patent US20070140959A1, “Method of preparing rhenium-tricarbonyl complex and its precursor” (priority 2005, published 2007).
# Assays:
# [1] = Stability of 188Re(I)-tricarbonyl precursor over time (HPLC); type: physicochemical; conditions: for 3 hours, then began to decay
# Experimental: The HPLC measurement was conducted in order to separate the ^188Re (I)-tricarbonyl precursor synthesized in Embodiment 1.
# The HPLC measurement was carried out with a WATERS system provided with a radiometric detector using methanol (hereinafter, referred to as ‘solvent A’) and 0.05 M triethylammoniumphosphate buffer (TEAP, pH 2.25, hereinafter referred to as ‘solvent B’) using two pumps each equipped with a reverse phase Xterra™ RP18 5 μm column (4.6×250 mm, Waters, Ireland).
# The solvent conditions for HPLC were as follows: in the range of 0 to 5 minutes, 100% solvent A began to flow and was then converted into 100% solvent B; in the range of 5 to 8 minutes, 100% solvent B began to flow and was then converted into 25% solvent A and 75% solvent B; in the range of 8 to 11 minutes, 25% solvent A and 75% solvent B were converted into 34% solvent A and 66% solvent B; in the range of 11 to 22 minutes, 34% solvent A and 66% solvent B were converted into 100% solvent A; and in the range of 22 to 24 minutes, 100% solvent A was converted into 100% solvent B. The flow rate of solvent was maintained at 1 ml/min for the entire time. In addition, in order to rapidly bring the column to a state of equilibrium, during the next 5 min, the solvent was supplied at 2 ml/min for 2 minnutes and then at the former solvent flow rate for 3 min. […]
# [2] = type: in vitro ADME, human
# Experimental: The ^188Re-tricarbonyl histidine complex prepared in Embodiment 2 was dissolved in physiological saline to prepare 37 MBq/ml of a test solution. Of this solution, 25 μl of the solution was added to 475 μl of human plasma (sigma) and then cultured at 37° C. for 24 hours. After the lapse of 0.5, 1, 2, 4 and 24 hours, the fraction of solution was subjected to TLC measurement. As a development solvent, a solvent mixture comprising methanol and conc. hydrochloric acid mixed at a 99:1 ratio was used.
# When the fraction of solution was developed, the labeled complex was shown in the developed portion, and the complex reacted with the plasma protein was shown in the zero point, which were confirmed through HPLC. The HPLC measurement was conducted in the same manner as in Experimental Example 2. In addition, the plasma protein binding was measured using an ITLC isotope scanner.
substance,measurement,setting,value
^188Re-tricarbonyl precursor [^188Re (I)-tricarbonyl precursor],fraction of precursor stable,[1],≥ 95%
^188Re (I)-tricarbonyl histidine complex [^188Re-tricarbonyl histidine complex],plasma stability (in words),[2],high plasma stability
